Non-standard residues stand in square brackets, D forms with d. Residues, ends and D or L forms follow the SMILES beside them. *: point of attachment. Gly(N-(3-decanoyloxypropyl)) = CCCCCCCCCC(=O)OCCCNCC(=O)O; Gly(N-(CH2)3O-octanoyl) = CCCCCCCC(=O)OCCCNCC(=O)O; N(3-imidazol-1-ylpropyl)Gly = O=C(O)CNCCCn1ccnc1; Gly(N-3-morpholinopropyl) = O=C(O)CNCCCN1CCOCC1; N(2-ethylhexyl)Gly = CCCCC(CC)CNCC(=O)O; Gly(N-dodecyl) = CCCCCCCCCCCCNCC(=O)O; N(octyl)Gly = CCCCCCCCNCC(=O)O; NHexGly = CCCCCCNCC(=O)O; For = O=C*
What was measured:
[1] = Delivery vehicle size and polydispersity by dynamic light scattering; assay type: physicochemical
Outline: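 LNPs made by microfluidic mixing of ethanolic peptoid/DSPC/cholesterol/DMG-PEG2000 (20:1.79:7.16:1.84 by weight) with mRNA in 10 mM citrate pH 5.0 at 1:3 by volume, then dialyzed overnight at 4 °C against tris-sucrose pH 7.4. Size and PDI read by dynamic light scattering in PBS.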

mRNA = mRNA encapsulation (modified Quant-iT RiboGreen assay); assay type: physicochemical; settings: for mean percent encapsulation of RNA: RiboGreen, without vs with Triton X-100; for % Encapsulation: mRNA
Outline: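 Peptoid nanoparticles were incubated with Triton X-100 for 10 min to release entrapped mRNA, then mixed with RiboGreen reagent and read by fluorescence (ex 485 nm/em 530 nm). Percent encapsulation was derived from the ratio of fluorescence without versus with Triton X-100.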

firefly luciferase = experiment: In vivo firefly luciferase expression after intravenous injection of fLuc mRNA delivery vehicles (IVIS imaging); design: species or system female Balb/c mice; settings: for Total Flux: mice, 2.5 ug fLuc mRNA intravenously, 6 hours post-injection; for Total Flux (luciferase expression): fLuc mRNA, intravenous, Balb/c mice
Outline: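 Female Balb/c mice (6-8 weeks) given 2.5 ug fLuc mRNA in Nutshells IV. At 6 hours, IP D-luciferin (30 mg/mL, 10 μL/g) under isoflurane; IVIS imaging 10 minutes later, then harvested organs imaged ex vivo. Read-out: total photon flux in regions of interest.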

hEPO = experiment: Quantification of hEPO in serum after IV injection of mRNA (Human EPO ELISA); assay type: in vivo; settings: Balb/c mice, 2.5 μg mRNA IV, serum after 6 hours
Outline: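 Balb/c mice received 2.5 μg mRNA encoding human EPO by IV injection; serum was collected after 6 hours. hEPO was measured by sandwich ELISA (biotin-conjugate, streptavidin-HRP, TMB, A450) against kit standards (mIU/mL) and an external standard (ng/mL), with values interpolated and corrected for dilution.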

[2] = Peptoid quantity remaining in liver by HPLC-TOF mass spectrometry; assay type: in vivo; settings: liver homogenate
Outline: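 Whole liver weighed; 20 mg tissue bead-homogenized in IPA/MeOH (8/2) with internal standard, centrifuged, supernatant run on BEH C8 HPLC-TOF MS. Peptoid concentration derived from linear calibration curve (0.2-50 μg/g) prepared in spiked untreated liver.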

luciferase = experiment: Luciferase expression after local (intramuscular or subcutaneous) administration of mRNA; assay type: in vivo; settings: mRNA 0.01 mpk, 6 hours; for IM Flux: intramuscular; for SC Flux: subcutaneous
Outline: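 Female Balb/c mice (6-8 weeks) received fLuc mRNA in aminolipidated peptoid Nutshells at 0.01 mpk subcutaneously or intramuscularly, or 0.1 mpk intratumorally. At 6 hours, anesthetized mice were given D-luciferin IP and imaged 10 minutes later; harvested organs were also imaged and total photon flux quantified in regions of interest.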

[3] = DLS in PBS, peptoid:DSPC:Cholesterol:DMG-PEG2000 weight ratio 20:1.79:7.16:1.84, mRNA

PDI [1, 3] | Particle Size [1, 3] | mean percent encapsulation of RNA (mRNA) | % of injected dose remaining in liver [2] | Particle Size ([1]; formulation recipe R5) | % Encapsulation (mRNA; formulation recipe R5) | Particle Size ([1]; formulation recipe F2) | % Encapsulation (mRNA; formulation recipe F2) | Structure (SMILES) | Total Flux (firefly luciferase) | hEPO (hEPO) | IM Flux (luciferase) | SC Flux (luciferase) | Total Flux (luciferase expression) (firefly luciferase; formulation recipe R5) | Total Flux (luciferase expression) (firefly luciferase; formulation recipe F2)
0.173 | 87.5 nm | 69.5% | 48.80% | – | – | – | – | CCCCCCCCCC(=O)OCCCN(CC(=O)N(CCCOC(=O)CCCCCCCCC)CC(=O)N(CCCCCC)CC(=O)N(CCCOC(=O)CCCCCCCCC)CC(=O)N(CCCOC(=O)CCCCCCCCC)CC(=O)N(CCCCCC)CC(N)=O)C(=O)CNCCCn1ccnc1 [Compound 109] (H-[N(3-imidazol-1-ylpropyl)Gly][Gly(N-(3-decanoyloxypropyl))][Gly(N-(3-decanoyloxypropyl))][NHexGly][Gly(N-(3-decanoyloxypropyl))][Gly(N-(3-decanoyloxypropyl))][NHexGly]-NH2) | 1.85E+09 p/s | 108 ng/mL | 3.97E+07 p/s | 1.00E+08 p/s | – | –
0.088 | 102.9 nm | 50.5% | 5.52% | – | – | – | – | CCCCCCCCCC(=O)OCCCN(CC(=O)N(CC(N)=O)CC(CC)CCCC)C(=O)CN(CCCCCCCC)C(=O)CN(CC(CC)CCCC)C(=O)CN(CCCOC(=O)CCCCCCCCC)C(=O)CN(CCCCCCCC)C(=O)CN(C=O)CCCN1CCOCC1 (centres unmarked) [Compound 110] (For-[Gly(N-3-morpholinopropyl)][N(octyl)Gly][Gly(N-(3-decanoyloxypropyl))][N(2-ethylhexyl)Gly][N(octyl)Gly][Gly(N-(3-decanoyloxypropyl))][N(2-ethylhexyl)Gly]-NH2) | 2.54E+09 p/s | 333 ng/mL | 1.43E+08 p/s | 2.34E+08 p/s | – | –
0.138 | 95.4 nm | 39.2% | 0.19% | 87.6 nm | 71.6% | – | – | CCCCCCCCCC(=O)OCCCN(C=O)CC(=O)N(CCCOC(=O)CCCCCCCCC)CC(=O)N(CC(=O)N(CCCN1CCOCC1)CC(=O)N(CCCOC(=O)CCCCCCCCC)CC(=O)N(CCCOC(=O)CCCCCCCCC)CC(=O)N(CC(N)=O)CC(CC)CCCC)CC(CC)CCCC (centres unmarked) [Compound 112] (For-[Gly(N-(3-decanoyloxypropyl))][Gly(N-(3-decanoyloxypropyl))][N(2-ethylhexyl)Gly][Gly(N-3-morpholinopropyl)][Gly(N-(3-decanoyloxypropyl))][Gly(N-(3-decanoyloxypropyl))][N(2-ethylhexyl)Gly]-NH2) | 1.13E+09 p/s | 345 ng/mL | 1.80E+08 p/s | 2.33E+08 p/s | 2.67E+08 p/s | –
1.000 | 88.9 nm | 32.6% | 15.67% | – | – | 71.4 nm | 67.8% | CCCCCCCCCCCCN(C=O)CC(=O)N(CCCOC(=O)CCCCCCC)CC(=O)N(CC(=O)N(CCCN1CCOCC1)CC(=O)N(CC(=O)N(CCCOC(=O)CCCCCCC)CC(=O)N(CCCCCCCCCCCC)CC(N)=O)CC(CC)CCCC)CC(CC)CCCC (centres unmarked) [Compound 116] (For-[Gly(N-dodecyl)][Gly(N-(CH2)3O-octanoyl)][N(2-ethylhexyl)Gly][Gly(N-3-morpholinopropyl)][N(2-ethylhexyl)Gly][Gly(N-(CH2)3O-octanoyl)][Gly(N-dodecyl)]-NH2) | 3.82E+09 p/s | 269 ng/mL | 7.83E+07 p/s | 3.53E+08 p/s | – | 1.60E+09 p/s
